In ChEMBL document CHEMBL4334501, “A drug repurposing screening reveals a novel epigenetic activity of hydroxychloroquine” (Eur J Med Chem, 2019):
The source made the active and inactive calls. The rule behind the calls is not given here.

Assays:
[1] = target: Polycomb protein EED (Homo sapiens) (UniProt O75530); assay: Inhibition of EED subunit of PRC2 complex in human MM1S cells assessed as reduction in H3K27me3 expression after 24 hrs by Western blot analysis; format: cell-based
[2] = target: Polycomb protein EED (Homo sapiens) (UniProt O75530); assay: Inhibition of HA-tagged human EED subunit of PRC2 complex expressed in human MM1S cells assessed as reduction in transfected EED cDNA vector-induced H3K27me3 overexpression at 10 uM after 24 hrs by Western blot analysis; format: cell-based

Sequence of Polycomb protein EED (Homo sapiens) (O75530 2-441 limits assumed): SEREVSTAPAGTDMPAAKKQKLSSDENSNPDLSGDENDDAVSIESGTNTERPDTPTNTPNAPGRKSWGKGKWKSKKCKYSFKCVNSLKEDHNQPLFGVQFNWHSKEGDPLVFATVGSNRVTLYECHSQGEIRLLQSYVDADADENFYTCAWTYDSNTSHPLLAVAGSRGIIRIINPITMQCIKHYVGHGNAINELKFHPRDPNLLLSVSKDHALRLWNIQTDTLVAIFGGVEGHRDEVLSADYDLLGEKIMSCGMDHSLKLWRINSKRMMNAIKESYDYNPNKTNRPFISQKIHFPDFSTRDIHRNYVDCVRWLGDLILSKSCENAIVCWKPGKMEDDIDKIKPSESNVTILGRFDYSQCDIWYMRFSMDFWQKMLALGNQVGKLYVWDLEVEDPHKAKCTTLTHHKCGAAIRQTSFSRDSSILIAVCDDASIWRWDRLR

- inhibition [1]: Dose-dependent effect
- inhibition [2]: Active
Structure (SMILES): CCN(CCO)CCCC(C)Nc1ccnc2cc(Cl)ccc12 (configuration not stated)
